Test results: patent publication US20080153896A1, “Polymorphic Forms of an HMG-CoA Reductase Inhibitor and Uses Thereof” (priority 2006, published 2008)

Assay: Stability (integrity) testing of amorphous and polymorphic form under storage conditions, RP-HPLC
Assay type: physicochemical
Parameters: key to Impurity RRT 0.738 / Impurity RRT 0.949 / Impurity RRT 1.050 / Impurity RRT 1.550 / Impurity RRT 0.136 / Impurity RRT 0.720 / Impurity RRT 0.706 / Impurity RRT 1.18 / Impurity RRT 1.826: % of total UV absorption (HPLC peak area); Impurity RRT 1.104 / Impurity RRT 1.698: unit not given beside the values
Settings: Batch 3 PP00205
Procedure: The integrity of the different forms of the (3R, 5R)-7-[2-(4-fluorophenyl)-5-isopropyl-3-phenyl-4-[(4-hydroxymethylphenylamino)carbonyl]-pyrrol-1-yl]-3,5-dihydroxy-heptanoic acid, hemi calcium salt, was tested under different atmospheric conditions to determine the stability of the amorphous and polymorphic form of the drug in various storage environments. Reversed Phase-HPLC (RP-HPLC) was used to separate (3R, 5R)-7-[2-(4-fluorophenyl)-5-isopropyl-3-phenyl-4-[(4-hydroxymethylphenylamino)carbonyl]-pyrrol-1-yl]-3,5-dihydroxy-heptanoic acid, hemi calcium salt, from smaller molecules representing breakdown products as well as oxidized drug. The relative amount of the drug was reported as a percent of total absorption by UV. The total peak area of all UV absorption impurities was used to define total impurity of the drug. Impurities are defined by their relative retention time (RRT) compared to native drug. Samples were injected onto a C18 column using standard temperature, gradient and run-time conditions.
The results of this integrity testing for the amorphous form of (3R, 5R)-7-[2-(4-fluorophenyl)-5-isopropyl-3-phenyl-4-[(4-hydroxymethylphenylamino)carbonyl]-pyrrol-1-yl]-3,5-dihydroxy-heptanoic acid, hemi calcium salt, is shown in Table 5.
Three separate batches of polymorphic Form I of (3R, 5R)-7-[2-(4-fluorophenyl)-5-isopropyl-3-phenyl-4-[(4-hydroxymethylphenylamino)carbonyl]-pyrrol-1-yl]-3,5-dihydroxy-heptanoic acid, hemi calcium salt, were prepared and tested under the same atmospheric conditions described for the amorphous form.

Structure (SMILES): CC(C)c1c(C(=O)Nc2ccc(CO)cc2)c(-c2ccccc2)c(-c2ccc(F)cc2)n1CC[C@@H](O)C[C@@H](O)CC(=O)[O-].CC(C)c1c(C(=O)Nc2ccc(CO)cc2)c(-c2ccccc2)c(-c2ccc(F)cc2)n1CC[C@@H](O)C[C@@H](O)CC(=O)[O-].[Ca+2] [Form I, (3R,5)-7-[2-(4-fluorophenyl)-5-isopropyl-3-phenyl-4-[(4-hydroxymethylphenylamino)carbonyl]-pyrrol-1-yl]-3,5-dihydroxy-heptanoic acid, hemi calcium salt]
- Impurity RRT 1.045 (25° C./60% RH 12M): 0.344
- Impurity RRT 1.095 (25° C./60% RH 12M): 0.165
- Impurity RRT 1.449 (25° C./60% RH 12M): 0.195
- Impurity RRT 1.596 (25° C./60% RH 12M): 0.086
- Impurity RRT 1.640 (25° C./60% RH 12M): 0.052
- Impurity RRT 1.698 (25° C./60% RH 12M): 0.061
- Total Impurity (25° C./60% RH 12M): 1.506
- Water (25° C./60% RH 12M): 5.57 % W/W
- Assay (30° C./65% RH 1M): 98.21 % W/W
- Description (30° C./65% RH 1M): White
- Highest Impurity (30° C./65% RH 1M): 0.449
- Impurity RRT 0.935 (30° C./65% RH 1M): 0.449
- Impurity RRT 1.045 (30° C./65% RH 1M): 0.385
- Impurity RRT 1.095 (30° C./65% RH 1M): 0.162
- Impurity RRT 1.44 (30° C./65% RH 1M): 0.234
- Impurity RRT 1.590 (30° C./65% RH 1M): 0.102
- Impurity RRT 1.640 (30° C./65% RH 1M): 0.071
- Impurity RRT 1.698 (30° C./65% RH 1M): 0.072
- Total Impurity (30° C./65% RH 1M): 1.495
- Water (30° C./65% RH 1M): 4.47 % W/W
- Assay (30° C./65% RH 2M): 98.27 % W/W
- Description (30° C./65% RH 2M): White
- Highest Impurity (30° C./65% RH 2M): 0.416
- Impurity RRT 0.935 (30° C./65% RH 2M): 0.416
- Impurity RRT 1.045 (30° C./65% RH 2M): 0.362
- Impurity RRT 1.095 (30° C./65% RH 2M): 0.163
- Impurity RRT 1.18 (30° C./65% RH 2M): 0.048
- Impurity RRT 1.44 (30° C./65% RH 2M): 0.216
- Impurity RRT 1.590 (30° C./65% RH 2M): 0.100
- Impurity RRT 1.640 (30° C./65% RH 2M): 0.063
- Impurity RRT 1.698 (30° C./65% RH 2M): 0.062
- Total Impurity (30° C./65% RH 2M): 1.43
- Water (30° C./65% RH 2M): 4.59 % W/W
- Assay (30° C./65% RH 3M): 98.21 % W/W
- Description (30° C./65% RH 3M): White
- Highest Impurity (30° C./65% RH 3M): 0.432
- Impurity RRT 0.935 (30° C./65% RH 3M): 0.432
- Impurity RRT 1.045 (30° C./65% RH 3M): 0.37
- Impurity RRT 1.095 (30° C./65% RH 3M): 0.168
- Impurity RRT 1.44 (30° C./65% RH 3M): 0.228
- Impurity RRT 1.590 (30° C./65% RH 3M): 0.096
- Impurity RRT 1.640 (30° C./65% RH 3M): 0.057
- Impurity RRT 1.698 (30° C./65% RH 3M): 0.064
- Total Impurity (30° C./65% RH 3M): 1.43
- Water (30° C./65% RH 3M): 4.82 % W/W
- Assay (30° C./65% RH 6M): 98.06 % W/W
- Description (30° C./65% RH 6M): White
- Highest Impurity (30° C./65% RH 6M): 0.418
- Impurity RRT 0.935 (30° C./65% RH 6M): 0.418
- Impurity RRT 1.045 (30° C./65% RH 6M): 0.352
- Impurity RRT 1.095 (30° C./65% RH 6M): 0.134
- Impurity RRT 1.449 (30° C./65% RH 6M): 0.224
- Impurity RRT 1.596 (30° C./65% RH 6M): 0.095
- Impurity RRT 1.640 (30° C./65% RH 6M): 0.077
- Impurity RRT 1.698 (30° C./65% RH 6M): 0.052
- Total Impurity (30° C./65% RH 6M): 1.352
- Water (30° C./65% RH 6M): 4.87 % W/W
- Assay (30° C./65% RH 9M): 97.89 % W/W
- Description (30° C./65% RH 9M): White
- Highest Impurity (30° C./65% RH 9M): 0.407
- Impurity RRT 0.935 (30° C./65% RH 9M): 0.407
- Impurity RRT 1.045 (30° C./65% RH 9M): 0.340
- Impurity RRT 1.095 (30° C./65% RH 9M): 0.150
- Impurity RRT 1.449 (30° C./65% RH 9M): 0.216
- Impurity RRT 1.596 (30° C./65% RH 9M): 0.103
- Impurity RRT 1.640 (30° C./65% RH 9M): 0.064
- Impurity RRT 1.698 (30° C./65% RH 9M): 0.053
- Total Impurity (30° C./65% RH 9M): 1.333
- Water (30° C./65% RH 9M): 4.91 % W/W
- Assay (30° C./65% RH 12M): 97.80 % W/W
- Description (30° C./65% RH 12M): White
- Highest Impurity (30° C./65% RH 12M): 0.424
- Impurity RRT 0.935 (30° C./65% RH 12M): 0.424
- Impurity RRT 1.045 (30° C./65% RH 12M): 0.363
- Impurity RRT 1.095 (30° C./65% RH 12M): 0.172
- Impurity RRT 1.449 (30° C./65% RH 12M): 0.197
- Impurity RRT 1.596 (30° C./65% RH 12M): 0.089
- Impurity RRT 1.640 (30° C./65% RH 12M): 0.064
- Impurity RRT 1.698 (30° C./65% RH 12M): 0.058
- Total Impurity (30° C./65% RH 12M): 1.367
- Water (30° C./65% RH 12M): 5.33 % W/W
- Assay (40° C./75% RH 1M): 98.23 % W/W
- Description (40° C./75% RH 1M): White
- Highest Impurity (40° C./75% RH 1M): 0.452
- Impurity RRT 0.935 (40° C./75% RH 1M): 0.452
- Impurity RRT 1.045 (40° C./75% RH 1M): 0.372
- Impurity RRT 1.095 (40° C./75% RH 1M): 0.162
- Impurity RRT 1.44 (40° C./75% RH 1M): 0.215
- Impurity RRT 1.590 (40° C./75% RH 1M): 0.100
- Impurity RRT 1.640 (40° C./75% RH 1M): 0.071
- Impurity RRT 1.698 (40° C./75% RH 1M): 0.066
- Total Impurity (40° C./75% RH 1M): 1.46
- Water (40° C./75% RH 1M): 4.33 % W/W
- Assay (40° C./75% RH 2M): 98.23 % W/W
- Description (40° C./75% RH 2M): White
- Highest Impurity (40° C./75% RH 2M): 0.422
- Impurity RRT 0.935 (40° C./75% RH 2M): 0.422
- Impurity RRT 1.045 (40° C./75% RH 2M): 0.351
- Impurity RRT 1.095 (40° C./75% RH 2M): 0.169
- Impurity RRT 1.18 (40° C./75% RH 2M): 0.052
- Impurity RRT 1.44 (40° C./75% RH 2M): 0.219
- Impurity RRT 1.590 (40° C./75% RH 2M): 0.090
- Impurity RRT 1.640 (40° C./75% RH 2M): 0.066
- Impurity RRT 1.698 (40° C./75% RH 2M): 0.065
- Total Impurity (40° C./75% RH 2M): 1.44
- Water (40° C./75% RH 2M): 4.40 % W/W
- Assay (40° C./75% RH 3M): 98.2 % W/W
- Description (40° C./75% RH 3M): White
- Highest Impurity (40° C./75% RH 3M): 0.423
- Impurity RRT 0.935 (40° C./75% RH 3M): 0.423
- Impurity RRT 1.045 (40° C./75% RH 3M): 0.360
- Impurity RRT 1.095 (40° C./75% RH 3M): 0.174
- Impurity RRT 1.44 (40° C./75% RH 3M): 0.218
- Impurity RRT 1.590 (40° C./75% RH 3M): 0.102
- Impurity RRT 1.640 (40° C./75% RH 3M): 0.065
- Impurity RRT 1.698 (40° C./75% RH 3M): 0.064
- Total Impurity (40° C./75% RH 3M): 1.41
- Water (40° C./75% RH 3M): 4.75 % W/W
- Assay (40° C./75% RH 6M): 98.16 % W/W
- Description (40° C./75% RH 6M): White
- Highest Impurity (40° C./75% RH 6M): 0.418
- Impurity RRT 0.138 (40° C./75% RH 6M): 0.107
- Impurity RRT 0.935 (40° C./75% RH 6M): 0.418
- Impurity RRT 1.045 (40° C./75% RH 6M): 0.347
- Impurity RRT 1.095 (40° C./75% RH 6M): 0.161
- Impurity RRT 1.449 (40° C./75% RH 6M): 0.187
- Impurity RRT 1.596 (40° C./75% RH 6M): 0.087
- Impurity RRT 1.640 (40° C./75% RH 6M): 0.050
- Impurity RRT 1.698 (40° C./75% RH 6M): 0.052
- Total Impurity (40° C./75% RH 6M): 1.409
- Water (40° C./75% RH 6M): 5.44 % W/W
- Assay (Initial): 98.43 % W/W
- Description (Initial): White
- Highest Impurity (Initial): 0.428
- Impurity RRT 0.706 (Initial): 0.045
- Impurity RRT 0.935 (Initial): 0.428
- Impurity RRT 1.045 (Initial): 0.349
- Impurity RRT 1.095 (Initial): 0.159
- Impurity RRT 1.44 (Initial): 0.235
- Impurity RRT 1.590 (Initial): 0.093
- Impurity RRT 1.640 (Initial): 0.054
- Impurity RRT 1.698 (Initial): 0.084
- Total Impurity (Initial): 1.438
- Water (Initial): 4.76 % W/W
